The source of these data is publication PMC7571145, “Multistep Synthesis and In Vitro Anticancer Evaluation of 2-Pyrazolyl-Estradiol Derivatives, Pyrazolocoumarin-Estradiol Hybrids and Analogous Compounds” (Molecules, 2020).

Data set [1] concerns MCF-7 cells. Kind of data set: MTT cytotoxicity assay on MCF-7 cells. Format: cell-based. The conditions noted are these: for primary growth inhibitory screen, cell viability, MCF-7: 2.5 µM, 72 h, mean±SD, untreated control about 100; for IC50: Homo sapiens, MCF7, 72 h, compounds 1-7 µM, mean ± SD, read-out: IC50 on MCF-7. The method, then: (§1) Cytotoxicity screens were performed to assess the in vitro anticancer activity of the synthesized A-ring-linked 2-pyrazoles of estradiol, the pyrazolocoumarin-estradiol hybrids, and their structurally simplified non-steroidal analogs on various cancerous cell lines such as MCF-7, PC-3, DU145, and HeLa and on non-cancerous MRC-5 fibroblasts. The 2-acetyl-phenol starting materials (4, 5, and 15) were also included for comparison. All compounds were applied in 2.5 µM concentration for 72 h. The obtained cell viability data were used to construct a heat map (Figure 2) in order to select compounds that exert cancer cell line-specific cytotoxicity. […] Furthermore, some compounds discriminated only DU145 cells and could eliminate these type of prostate cancer cells.
(§2) To understand structure-function relationships, we also included the structural analogs of the selected compounds, namely 7a (C-17 acetate of 8a), 8c (C-17 OH counterpart of 7c), and 9a (steroidal pair of 19a) into subsequent analyses. […] For this, compounds were applied on MCF-7, PC-3, DU145, and HeLa and on non-cancerous MRC-5 fibroblasts in various concentrations for 72 h or were treated with cisplatin at different concentrations. On the viability data, dose–response curves were fitted (Figure S1) and IC50 values were calculated accordingly (Table 3). In agreement with the primary cytotoxicity screen (Table S1), the obtained IC50 concentrations clearly indicated which compound was selectively effective on one or more cancer cell lines. […] Typically, acetylated steroidal pyrazoles were less favorable than deacetylated counterparts due to reduced cancer cell selectivity (7c, 10a).
(§3) To evaluate the in vitro pharmacological effects of the synthesized molecules, each compound was first dissolved in cell culture grade DMSO (Sigma) to a final concentration of 10 mM. Using MTT colorimetric assay, the cytotoxicity of these compounds was evaluated on cancerous (MCF-7, HeLa, DU145, PC-3) and non-cancerous (MRC-5) cell lines. Briefly, 5000 cells/well of each cell line were seeded in 96-well plates and were left to grow overnight in a 5% CO2 atmosphere at 37 °C. On the next day, cells were treated with each derivative separately, in case of the primary screen, or only with the selected compounds upon IC50 determination. Cells were incubated with the test compounds for 72 h in a 5% CO2 atmosphere at 37 °C. End point was measured by incubating cells for 1 h with 0.5 mg/mL of MTT reagent (Serva) dissolved in serum free culture medium. The formazan crystals formed by metabolically active cells were later dissolved in DMSO. Optical density of the obtained solutions was measured at 570 nm using a Synergy HTX plate reader. […] The analysis and conclusions were made based on three independent experiments. Normalized data were analyzed and the heat map was constructed using GraphPad Prism 7 software.

In data set [2] the test system is MRC-5 fibroblasts. As to the kind of experiment: MTT cytotoxicity assay on non-cancerous MRC-5 fibroblasts. The conditions noted are these: 72 h; for primary growth inhibitory screen, cell viability, MRC-5 / IC50: MTT; for primary growth inhibitory screen, cell viability, MRC-5: mean±SD, untreated control about 100; for IC50: Homo sapiens, MRC5, compounds 1-7 µM, mean ± SD, read-out: IC50 on MRC-5. Format: cell-based. The protocol: as §1, §2, §3
For orientation: Tetrazolium dyes change colour on reduction, which living cells bring about.

Data set [3] has as its system HeLa cells. As to the kind of experiment: MTT cytotoxicity assay on HeLa cells. Format: cell-based. The following applies: 72 h; for primary growth inhibitory screen, cell viability, HeLa: 2.5 µM, mean±SD, untreated control about 100; for IC50: Homo sapiens, HeLa, compounds 1-7 µM, mean ± SD, read-out: IC50 on HeLa. The method, then: as §1, §2, §3
The subject of data set [4] is DU145 cells. As to the kind of experiment: MTT cytotoxicity assay on DU145 prostate cancer cells. The class given is cell-based. The conditions noted are these: for primary growth inhibitory screen, cell viability, DU145: 2.5 µM, 72 h, mean±SD, untreated control about 100; for IC50: Homo sapiens, DU-145, 72 h, compounds 1-7 µM, mean ± SD, read-out: IC50 on DU145. The method, then:
as §1, §2, §3

For data set [5], the system named is PC-3 cells. Kind of data set: MTT cytotoxicity assay on PC-3 prostate cancer cells. The conditions noted are these: for primary growth inhibitory screen, cell viability, PC-3: 2.5 µM, 72 h, mean±SD, untreated control about 100; for IC50: Homo sapiens, PC-3, 72 h, compounds 1-7 µM, mean ± SD, read-out: IC50 on PC-3. Format: cell-based. The method, then:
as §1, §2, §3

Turning to `OCc1cn(-c2ccc(Cl)cc2)nc1-c1cc2c(cc1O)CCCC2` [Compound 18c, 3-(1′-(4″-Chlorophenyl)-4′-(hydroxymethyl)-1′H-pyrazol-3′-yl)-5,6,7,8-tetrahydro-2-naphthol], the melting point is 154 to 156 °C. In addition, the “primary growth inhibitory screen, cell viability, MCF-7” value in data set [1] was not below 100±4.7. For the same compound, the “primary growth inhibitory screen, cell viability, MRC-5” value in data set [2] (2.5 µM) is listed as not below 100±2.3. The “primary growth inhibitory screen, cell viability, HeLa” value in data set [3] is not below 100±6.6. The “primary growth inhibitory screen, cell viability, DU145” value in data set [4] is listed as not below 100±4.3. In data set [5], the “primary growth inhibitory screen, cell viability, PC-3” value is recorded as 90.9±3.0.

`Cc1ccc(-n2cc3c(=O)oc4cc5c(cc4c3n2)CCCC5)cc1` [Compound 19b, 2-(4′-Tolyl)-7,8,9,10-tetrahydrobenzo[6,7]chromeno[4,3-c]pyrazol-4(2H)-one] gave a melting point of 224 to 226 °C. Moreover, the “primary growth inhibitory screen, cell viability, MCF-7” value in data set [1] was not below 100±4.8. In data set [2] (2.5 µM), the “primary growth inhibitory screen, cell viability, MRC-5” value is not below 100±0. Further, the “primary growth inhibitory screen, cell viability, HeLa” value in data set [3] is not below 100±2.4. The “primary growth inhibitory screen, cell viability, DU145” value in data set [4] came out at 100.6±6.3. Moreover, the “primary growth inhibitory screen, cell viability, PC-3” value in data set [5] is 84.1±5.2.

For `CC(=O)O[C@H]1CC[C@H]2[C@@H]3CCc4cc(O)c(-c5nn(-c6ccc(Cl)cc6)cc5CO)cc4[C@H]3CC[C@]12C` [Compound 10c], the melting point is 288 to 290 °C. In addition, the “primary growth inhibitory screen, cell viability, MCF-7” value in data set [1] turned out to be 63.2±2.2. In addition, the “primary growth inhibitory screen, cell viability, MRC-5” value in data set [2] (2.5 µM) came out at 96.4±10.1. Also, the “primary growth inhibitory screen, cell viability, HeLa” value in data set [3] turned out to be 72.4±4.2. For the same compound, the “primary growth inhibitory screen, cell viability, DU145” value in data set [4] was 77.3±6.3. In data set [5], the “primary growth inhibitory screen, cell viability, PC-3” value came out at 81.6±6.8.

Turning to `Cc1ccc(-n2cc(CO)c(-c3cc4c(cc3O)CCCC4)n2)cc1` [Compound 18b, 3-(4′-(Hydroxymethyl)-1′-(4″-tolyl)-1′H-pyrazol-3-yl)-5,6,7,8-tetrahydro-2-naphthol], the melting point was 163 to 165 °C. Further, in data set [1], the “primary growth inhibitory screen, cell viability, MCF-7” value is not below 100±5.3 and the IC50 was more than 7 µM. Besides, the “primary growth inhibitory screen, cell viability, MRC-5” value in data set [2] (2.5 µM) is not below 100±2.6. For the same compound, in data set [2] (2.5 µM, based on the heat map), the “effect on non-cancerous fibroblasts” value is recorded as “no or very mild effect”. Moreover, the 50% inhibitory concentration (IC50) in data set [2] was more than 7 µM. In data set [3], the “primary growth inhibitory screen, cell viability, HeLa” value was not below 100±8.7 and the IC50 was more than 7 µM. In data set [4], the “primary growth inhibitory screen, cell viability, DU145” value worked out at 45.3±2.5 and the IC50 turned out to be 2.7 ± 1.1 µM. Further, in data set [5], the “primary growth inhibitory screen, cell viability, PC-3” value is 99.6±7.7 and the IC50 was more than 7 µM.

Compound `CC(=O)O[C@H]1CC[C@H]2[C@@H]3CCc4cc(O)c(-c5nn(-c6ccccc6)cc5C=O)cc4[C@H]3CC[C@]12C` [Compound 7a, 2-(4′-Formyl-1′-phenyl-1′H-pyrazol-3′-yl)-estra-1,3,5(10)-triene-3,17β-diol-17-acetate] gave a melting point of 230 to 232 °C. Moreover, in data set [1], the “primary growth inhibitory screen, cell viability, MCF-7” value was 98.6±5.2 and the concentration for half-maximal inhibition (IC50) worked out at 4.49 ± 1 µM. In data set [2] (2.5 µM), the “primary growth inhibitory screen, cell viability, MRC-5” value was not below 100±5.7. Moreover, in data set [2], the half-maximal inhibitory concentration (IC50) is 5.9 ± 1 µM. Further, in data set [3], the “primary growth inhibitory screen, cell viability, HeLa” value is 102.7±2.7 and the half-maximal inhibitory concentration (IC50) stood at 4.18 ± 1 µM. Also, in data set [4], the “primary growth inhibitory screen, cell viability, DU145” value came to 108.7±9.1 and the IC50 came to 6.93 ± 1 µM. Also, in data set [5], the “primary growth inhibitory screen, cell viability, PC-3” value stood at 87.8±7.1 and the concentration for half-maximal inhibition (IC50) was found to be 3.63 ± 1 µM.

In turn, `Cc1ccc(-n2cc(C=O)c(-c3cc4c(cc3O)CCCC4)n2)cc1` [Compound 17b, 3′-(3-Hydroxy-5,6,7,8-tetrahydronaphthalen-2-yl)-1′-(4″-tolyl)-1′H-pyrazole-4′-carbaldehyde] registered a melting point of 151 to 153 °C. Moreover, the “primary growth inhibitory screen, cell viability, MCF-7” value in data set [1] was 93.2±6.0. Moreover, the “primary growth inhibitory screen, cell viability, MRC-5” value in data set [2] (2.5 µM) was not below 100±14.5. Besides, in data set [3], the “primary growth inhibitory screen, cell viability, HeLa” value was not below 100±3.9. In data set [4], the “primary growth inhibitory screen, cell viability, DU145” value is on record as not below 100±16.8. The “primary growth inhibitory screen, cell viability, PC-3” value in data set [5] is not below 100±3.0.

As a reminder, the melting point is the temperature of the solid-liquid transition. What is called IC50 is the concentration that gives 50% inhibition.
